Test results taken from US8501806B2, “Methods for preventing or reducing colon carcinogenesis” (Nogra Pharma Limited, priority 2008, dated 2013).

What was measured:
HT-29 cells = experiment: CFSE cell proliferation assay, HT-29 cells; format: cell-based, human; conditions: FIG. 2; graded doses
Procedure: All reagents used in Examples 1-3 were from Sigma-Aldrich (Milan, Italy) unless specified. Compounds were dissolved as a 25 mM stock solution in culture medium, and the pH of the solution was adjusted to 7.4, if necessary, with NaOH. The human CRC cell lines, HCT-116 and HT-29 (expressing either wild-type or mutated p53 respectively), were maintained in McCoy's 5A supplemented with 10% fetal bovine serum (FBS), 1% penicillin/streptomycin, and 50 μg/ml gentamycin. The murine CRC cell line, CT26, was maintained in RPMI 1640 medium supplemented with 10% FBS and 1% penicillin/streptomycin.
For cell growth assays, serum-starved HCT-116, HT-29, and CT26 cells were plated in appropriate complete medium at 2×10^5 cells/ml/well in 6-well culture dishes and allowed to adhere overnight. Cells were then labeled with carboxyfluorescein diacetate succinimidyl ester (CFSE) (Invitrogen, Milan Italy) at 37° C. according to the manufacturer's instruction. After 30 minutes, the medium was removed and fresh media containing 0.05% bovine serum albumin (BSA), and increasing doses of 5-ASA or disclosed compounds were added. […] CFSE and/or PI-positive cells were determined by flow cytometry (Becton Dickinson, FACSCalibur, Milan, Italy). […] The percentage of proliferating cells was then evaluated by flow cytometry.

fibroblasts = experiment: Proliferation of normal fibroblasts; format: cell-based; conditions: FIG. 4B; 48 hours
CDK2 = CDK2 phosphorylation by Western blotting; format: cell-based, human; conditions: FIG. 6, HCT-116 cells
Description: One of 4 representative Western blots is shown.

CT26-derived tumors = experiment: In vivo formation of CT26-derived tumors; parameters: species or system Balb/c mice; conditions: for mice with CT26-derived macroscopic tumors: fourteen days after injection (control 10/10)
Procedure: (§1) CT26 cells (1×10^5 cells in 300 μl PBS 1×) were injected subcutaneously into the flank of Balb/c mice, whose fur was shaved and depilated. Five groups of 10 mice each were implanted with CT26. The first group received daily subcutaneously 300 μl PBS (control), the remaining groups received daily subcutaneously compound 14 at a final dose of 1, 4, 8, or 12 mg/kg/mouse dissolved in 300 μl PBS. Both compound 14 and PBS were administered starting on day 3. Further experimentation was performed to assess whether compound 14 had anti-cancer activity when administered systemically. To this end, 3 days after the CT26 inoculation, mice were injected with PBS or compound 14 (8 mg/kg/mouse) intraperitoneally. As a control, mice received subcutaneously compound 14 (8 mg/kg/mouse). Mice were monitored over the time for weight loss. After 2 weeks, mice were sacrificed, tumors were photographed, then excised and their mass calculated according to the following formula: ½×(short diameter)×(long diameter)×(height). Total extracts were prepared from xenografts and analyzed for cyclin D1 protein content by Western blotting using a commercially available antibody (Santa Cruz Biotechnology). To examine whether compound 14 was able to reduce the growth of established CRC xenografts, Balb/c mice were implanted with CT26 as described above. After 2 weeks, mice with similar tumor size, determined by caliper measurements, were divided into three groups of 8 mice each. The first group received daily subcutaneously 300 μl PBS (control), the second group received daily subcutaneously 5-ASA (80 mg/kg) dissolved in 300 μl PBS. The last group received daily subcutaneously compound 14 (8 mg/kg) dissolved in 300 μl PBS. Mice were monitored over the time for weight loss. After 2 weeks, mice were sacrificed, tumors were photographed, then excised and their mass calculated as described above. Studies were approved by the Local Ethical Committee.

[1] = tested on: established CT26-derived tumors; experiment: Growth of established CT26 xenografts; format: in vivo, Balb/c mice; conditions: FIG. 7D; subcutaneously 8 mg/kg mouse/day for 2 weeks from day 14
Procedure: as §1, with “To this end, 3 days after the CT26 inoculation, mice were injected with PBS or compound 14 (8 mg/kg/mouse) intraperitoneally. As a control, mice received subcutaneously compound 14 (8 mg/kg/mouse).” left out, “To examine whether compound 14 was able to reduce the growth of established CRC xenografts, Balb/c mice were implanted with CT26 as described above.” left out, “The first group received daily subcutaneously 300 μl PBS (control), the second group received daily subcutaneously 5-ASA (80 mg/kg) dissolved in 300 μl PBS. The last group received daily subcutaneously compound 14 (8 mg/kg) dissolved in 300 μl PBS.” left out, “[…] Mice” for “Studies”, “monitored over” for “approved by”, “time and sacrificed at day 28.” for “Local Ethical Committee.”

COc1ccc(N)cc1C(=O)NO [compound 14, 2-methoxy-5-amino-N-hydroxybenzamide]
proliferation of HT-29 cells (HT-29 cells): dose-dependently inhibited | proliferation of normal fibroblasts (fibroblasts): did not affect | CDK2 phosphorylation on threonin 14 and tyrosine 15 (CDK2): enhanced phosphorylation | in-vivo formation of CT26-derived tumors (CT26-derived tumors; FIG. 7A, daily subcutaneously 1, 4, 8, or 12 mg/kg/mouse): dose-dependently reduces | CT26-derived xenografts (CT26-derived tumors; FIG. 7B, intra-peritoneally 8 mg/kg/mouse): inhibits | cyclin D1 protein expression in xenografts (CT26-derived tumors; FIG. 7C, Western blotting, two different doses): reduced | body weight loss (CT26-derived tumors; during the study, treated groups): No body weight loss | tumor mass in comparison to controls (CT26-derived tumors; given subcutaneously or intraperitoneally): significant decrease | mice with CT26-derived macroscopic tumors (CT26-derived tumors; intraperitoneally): 7/10 | histological analysis of liver, kidney, spleen, and colon (CT26-derived tumors; mice receiving compound): no morphological alteration | survival (CT26-derived tumors; mouse, in vivo): all animals survived | mice with CT26-derived macroscopic tumors (CT26-derived tumors; subcutaneously): 5/10 | tumor size of established CT26-derived tumors vs PBS [1]: significantly reduced
